Legend:
Jurkat = test: Cytotoxicity against human Jurkat cells assessed as inhibition of cell growth incubated for 48 hrs by MTT assay; assay type: functional, cell-based
[1] = Cytotoxicity against rat H9c2 cells assessed as inhibition of cell growth incubated for 48 hrs by MTT assay; assay type: toxicity, cell-based
Pyruvate kinase PKM [2] = target: T1, Pyruvate kinase PKM (Homo sapiens, UniProt P14618); test: Inhibition of N-terminal his8-tagged PKM2 (unknown origin)
Target sequence in this assay (P14618 whole entry): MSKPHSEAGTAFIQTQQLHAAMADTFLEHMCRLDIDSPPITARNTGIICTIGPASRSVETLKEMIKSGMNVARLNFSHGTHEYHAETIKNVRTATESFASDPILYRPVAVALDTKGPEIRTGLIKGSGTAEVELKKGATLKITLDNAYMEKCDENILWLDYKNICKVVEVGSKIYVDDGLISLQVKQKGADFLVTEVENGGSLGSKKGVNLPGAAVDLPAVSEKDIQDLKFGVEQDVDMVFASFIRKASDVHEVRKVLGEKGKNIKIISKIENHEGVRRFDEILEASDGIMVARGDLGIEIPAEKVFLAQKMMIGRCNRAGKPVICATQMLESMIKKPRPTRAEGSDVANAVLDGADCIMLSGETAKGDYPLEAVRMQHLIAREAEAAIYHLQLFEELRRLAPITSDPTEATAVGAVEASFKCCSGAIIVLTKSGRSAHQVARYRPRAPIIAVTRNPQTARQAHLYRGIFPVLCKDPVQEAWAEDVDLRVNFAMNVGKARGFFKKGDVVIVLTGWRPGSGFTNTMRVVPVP

MCF7 = test: cells; conditions: Homo sapiens, MCF7, 48 h
Description: Cytotoxicity against human MCF7 cells assessed as inhibition of cell growth incubated for 48 hrs by MTT assay

HCC1937 = test: Cytotoxicity against human HCC1937 cells assessed as inhibition of cell growth incubated for 48 hrs by MTT assay; assay type: functional, cell-based; conditions: HCC1937, 48 h
A549 = test: cells; conditions: Homo sapiens, A549, 48 h
Description: Cytotoxicity against human A549 cells assessed as inhibition of cell growth incubated for 48 hrs by MTT assay

Oryctolagus cuniculus = species: Oryctolagus cuniculus; test: Inhibition of rabbit LDH at 1 uM relative to control
Pyruvate kinase PKM [3] = target: T1, Pyruvate kinase PKM; test: Inhibition of PKM1 (unknown origin); parameters: concentration or dose not given beside the values; conditions: concentration not given here
Target sequence in this assay (P14618 2-531 limits assumed): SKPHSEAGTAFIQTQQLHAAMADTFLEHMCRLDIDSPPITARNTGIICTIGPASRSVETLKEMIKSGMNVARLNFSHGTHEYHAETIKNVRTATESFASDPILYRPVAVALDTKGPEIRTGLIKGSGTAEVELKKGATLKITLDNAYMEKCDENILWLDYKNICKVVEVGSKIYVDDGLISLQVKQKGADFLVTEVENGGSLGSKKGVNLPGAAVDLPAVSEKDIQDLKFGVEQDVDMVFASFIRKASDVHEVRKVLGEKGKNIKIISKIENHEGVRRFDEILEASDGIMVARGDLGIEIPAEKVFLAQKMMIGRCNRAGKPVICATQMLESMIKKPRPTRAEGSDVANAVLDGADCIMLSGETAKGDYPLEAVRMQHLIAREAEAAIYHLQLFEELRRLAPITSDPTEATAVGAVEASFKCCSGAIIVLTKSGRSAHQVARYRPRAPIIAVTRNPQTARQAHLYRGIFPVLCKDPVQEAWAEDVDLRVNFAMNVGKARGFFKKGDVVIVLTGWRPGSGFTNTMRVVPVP

[4] = target: Pyruvate kinase PKLR (Homo sapiens) (UniProt P30613); test: Inhibition of PKR (unknown origin) at 1 uM relative to control
4T1 = test: Cytotoxicity against mouse 4T1 cells assessed as inhibition of cell growth incubated for 48 hrs by MTT assay; assay type: functional, cell-based; conditions: 4T1, 48 h
MDA-MB-231 = test: Cytotoxicity against human MDA-MB-231 cells assessed as inhibition of cell growth incubated for 48 hrs by MTT assay; assay type: functional, cell-based; conditions: MDA-MB-231, 48 h
Pyruvate kinase PKM [5] = target: T1, Pyruvate kinase PKM; test: Inhibition of N-terminal his8-tagged PKM2 (unknown origin) in presence of FBP by Michaelis-menten analysis
Target sequence in this assay (P14618 whole entry): as the sequence (P14618 whole entry) above

Pyruvate kinase PKM [6] = target: T1, Pyruvate kinase PKM; test: Inhibition of PKM2 (unknown origin) assessed as decrease in monomer population at 5 uM by analytical size-exclusion chromatography relative to control
Target sequence in this assay (P14618 2-531 limits assumed): as the sequence (P14618 2-531 limits assumed) above

Pyruvate kinase PKM [7] = target: T1, Pyruvate kinase PKM; test: Inhibition of PKM2 (unknown origin) assessed as decrease in dimer population at 5 uM in presence of FBP by analytical size-exclusion chromatography relative to control
Target sequence in this assay (P14618 2-531 limits assumed): as above

Pyruvate kinase PKM [8] = target: T1, Pyruvate kinase PKM; test: Binding affinity to PKM2 (unknown origin) assessed as protein destabilization by differential scanning fluorimetry; conditions: dose 2.5-10 µM
Target sequence in this assay (P14618 2-531 limits assumed): as above

Pyruvate kinase PKM [9] = target: T1, Pyruvate kinase PKM; test: Inhibition of PKM2 (unknown origin) assessed as decrease in dimer population at 5 uM by analytical size-exclusion chromatography relative to control
Target sequence in this assay (P14618 2-531 limits assumed): as above

Pyruvate kinase PKM [10] = target: T1, Pyruvate kinase PKM; test: Inhibition of PKM2 (unknown origin) assessed as increase in tetramer ratio by analytical size-exclusion chromatography; conditions: dose 5.0 µM
Target sequence in this assay (P14618 2-531 limits assumed): as above

Pyruvate kinase PKM [11] = target: T1, Pyruvate kinase PKM; test: Inhibition of PKM2 (unknown origin) assessed as decrease in dimer population by analytical size-exclusion chromatography; conditions: dose 5.0 µM

Chain of Pyruvate kinase PKLR (Homo sapiens) (P30613 whole entry, looked up): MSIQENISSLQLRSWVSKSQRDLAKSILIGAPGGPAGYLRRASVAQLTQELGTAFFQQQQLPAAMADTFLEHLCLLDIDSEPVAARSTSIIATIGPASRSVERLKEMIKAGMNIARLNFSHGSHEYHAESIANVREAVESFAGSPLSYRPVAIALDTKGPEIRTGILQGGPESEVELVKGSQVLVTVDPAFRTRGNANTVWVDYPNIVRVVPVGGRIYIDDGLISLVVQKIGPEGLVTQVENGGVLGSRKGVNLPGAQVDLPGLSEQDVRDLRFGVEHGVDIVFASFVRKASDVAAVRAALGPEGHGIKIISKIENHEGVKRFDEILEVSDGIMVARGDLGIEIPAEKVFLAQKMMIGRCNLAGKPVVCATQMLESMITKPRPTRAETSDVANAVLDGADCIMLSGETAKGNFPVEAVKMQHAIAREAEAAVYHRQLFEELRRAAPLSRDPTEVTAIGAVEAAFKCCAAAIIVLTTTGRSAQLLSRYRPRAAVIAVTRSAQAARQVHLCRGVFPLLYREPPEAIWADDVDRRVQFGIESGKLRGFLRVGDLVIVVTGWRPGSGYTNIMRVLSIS

Compound | IC50 (Jurkat) [nM] | IC50 at 48 h [1] [nM] | IC50 (Pyruvate kinase PKM [2]) [nM] | IC50 (MCF7) [nM] | IC50 (HCC1937) [nM] | IC50 (A549) [nM] | inhibition (Oryctolagus cuniculus) [%] | inhibition (Pyruvate kinase PKM [3]) [%] | inhibition [4] [%] | IC50 (4T1; read-out: IC50) [nM] | IC50 (MDA-MB-231) [nM] | IC50 (Pyruvate kinase PKM [5]) [nM] | inhibition (Pyruvate kinase PKM [6]) [%] | inhibition (Pyruvate kinase PKM [7]) [%] | Activity (Pyruvate kinase PKM [8]) | inhibition (Pyruvate kinase PKM [9]) [%] | inhibition (Pyruvate kinase PKM [10]) | inhibition (Pyruvate kinase PKM [11]) | IC50 (4T1) [nM]
COC(=O)c1cc[n+]2[se]c(C3(O)C4CC5CC(C4)CC3C5)c(Br)c2c1 (stereo not drawn) | 6180 | 4760 | > 1000 | 6870 | 2890 | – | – | – | – | – | – | – | – | – | – | – | – | – | –
COC(=O)c1cc[n+]2[se]c(C3([O-])CCCC3)c(Br)c2c1 | 480 | 770 | 380 | 360 | 410 | 8700 | 6 | 20 | 42 | 2040 | 1660 | 517 | – | – | – | – | – | – | –
NC(=O)c1ccc2c(Br)c(C3(O)CCCCC3)[se][n+]2c1 | 600 | 1270 | > 1000 | 2300 | 1500 | – | – | – | – | – | – | – | – | – | – | – | – | – | –
NC(=O)c1cc[n+]2[se]c(C3(O)CCC(F)(F)CC3)c(Br)c2c1 | 1430 | 1410 | 362 | 1000 | 600 | 3170 | 13 | 26 | 40 | 1250 | 1360 | 542 | – | – | – | – | – | – | –
CCCCCCCCCCCCCC(C)(O)c1[se][n+]2ccc(C(N)=O)cc2c1Br (stereo not drawn) | 2000 | 1910 | 901 | 1010 | 910 | 3720 | 9 | 23 | 29 | 4320 | 2420 | – | – | – | – | – | – | – | –
NC(=O)c1cc[n+]2[se]c(C3(O)CCCCC3)c(Br)c2c1 | 1000 | 1410 | 420 | 2220 | 600 | 2810 | 6 | 15 | 37 | 1410 | 1150 | 572 | 38 | 43.2 | Dose-Dependent Effect | 69.1 | Dose-Dependent Effect | Dose-Dependent Effect | –
OC1(c2[se][n+]3ccccc3c2Br)CCCCC1 | – | – | 2920 | – | – | – | – | – | – | – | – | 2730 | – | – | – | – | – | – | –
NC(=O)c1cccc2c(Br)c(C3(O)CCCCC3)[se][n+]12 | 1880 | 2630 | > 1000 | 3850 | 1330 | – | – | – | – | – | – | – | – | – | – | – | – | – | –
COC(=O)c1cc[n+]2[se]c(C3([O-])CCC3)c(Br)c2c1 | 3240 | 2970 | 854 | 2800 | 3030 | 9120 | 7 | 26 | 20 | > 10000 | 6510 | 603 | – | – | – | – | – | – | –
COC(=O)c1cc[n+]2[se]c(C3(O)CCC(F)(F)CC3)c(Br)c2c1 | 480 | 1060 | 637 | 280 | 240 | 1160 | 2 | 11 | 29 | 1480 | 480 | 572 | – | – | – | – | – | – | –
O=c1cc(-c2ccc(O)cc2)oc2cc(O)cc(O)c12 [APIGENIN] | – | – | > 20000 | – | – | – | – | – | – | – | – | > 20000 | – | – | – | – | – | – | –
[2H]C([2H])([2H])OC(=O)c1cc[n+]2[se]c(C3(O)CCCCC3)c(Br)c2c1.[Cl-] | 490 | 640 | 478 | 380 | 540 | 1200 | – | – | – | 1110 | 400 | 610 | – | – | – | – | – | – | –
COC(=O)c1ccc2c(Br)c(C3(O)CCCCC3)[se][n+]2c1 | 250 | 890 | 545 | 870 | 310 | 1310 | 10 | 16 | 39 | 700 | 430 | 303 | – | – | – | – | – | – | –
O=C(O)c1ccc2c(Br)c(C3(O)CCCCC3)[se][n+]2c1 | 3260 | 3550 | > 1000 | > 10000 | 3850 | – | – | – | – | – | – | – | – | – | – | – | – | – | –
COC(=O)c1cc(C)[n+]2[se]c(C3(O)CCCCC3)c(Br)c2c1 | 450 | 900 | 1360 | 300 | 340 | 1120 | 7 | 10 | 28 | 960 | 370 | – | – | – | – | – | – | – | –
CCCCCCCCCCCCCC(C)(O)c1[se][n+]2ccc(C(=O)OC)cc2c1Br (stereo not drawn) | 3380 | 3630 | > 1000 | 3790 | 2450 | – | – | – | – | – | – | – | – | – | – | – | – | – | –
NC(=O)c1cc[n+]2[se]c(C3(O)C4CC5CC(C4)CC3C5)c(Br)c2c1 (stereo not drawn) | 910 | 910 | 1010 | 610 | 740 | 2210 | 6 | 21 | 11 | 560 | 650 | – | – | – | – | – | – | – | –
O=C(O)c1cc[n+]2[se]c(C3(O)CCCCC3)c(Br)c2c1 | 6610 | 7820 | 1060 | > 10000 | 5820 | 7030 | 9 | 4 | 5 | 6810 | 6120 | – | – | – | – | – | – | – | –
COc1cccc2c1C(=O)c1c(O)c3c(c(O)c1C2=O)C[C@@](O)(C(=O)CO)C[C@@H]3O[C@H]1C[C@H](N)[C@H](O)[C@H](C)O1 [DOXORUBICIN] | 320 | 3900 | – | 470 | 1080 | 230 | – | – | – | – | 410 | – | – | – | – | – | – | – | 65
COC(=O)c1cc2c(Br)c(C3(O)CCCCC3)[se][n+]2cc1F | 1160 | 1680 | 897 | 1080 | 1190 | 2930 | 7 | 29 | 15 | 2340 | 1380 | – | – | – | – | – | – | – | –

From ChEMBL document CHEMBL5620354, “Development of isoselenazolium chlorides as selective pyruvate kinase isoform M2 inhibitors” (Eur J Med Chem, 2023)
